Measured values reported in US12685735B2 (Foghorn Therapeutics Inc., priority 2020, dated 2026).
Read-outs that look alike come from different tables or passages of the source.

Tests used:
BRG-1 = BRG-1 (Homo sapiens, UniProt P51532); assay: ATPase catalytic activity assay of BRG-1 (ADP-Glo); type: biochemical; settings: ATPase catalytic activity, ADP-Glo; for IC50: read-out: BRG1 IC50 (μM)*; for Emax: read-out: BRG1 Max % Inhibition
How it was run: (§1)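 In vitro biochemical ATPase assay; product ADP detected after removing leftover ATP and reconverting ADP to ATP for a luciferase signal.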

BRM = BRM (Homo sapiens, UniProt P51531); assay: ATPase catalytic activity assay of BRM (ADP-Glo); type: biochemical; settings: for IC50: read-out: BRM IC50 (μM)*
How it was run: as §1

Chain of BRM (P51531 whole entry): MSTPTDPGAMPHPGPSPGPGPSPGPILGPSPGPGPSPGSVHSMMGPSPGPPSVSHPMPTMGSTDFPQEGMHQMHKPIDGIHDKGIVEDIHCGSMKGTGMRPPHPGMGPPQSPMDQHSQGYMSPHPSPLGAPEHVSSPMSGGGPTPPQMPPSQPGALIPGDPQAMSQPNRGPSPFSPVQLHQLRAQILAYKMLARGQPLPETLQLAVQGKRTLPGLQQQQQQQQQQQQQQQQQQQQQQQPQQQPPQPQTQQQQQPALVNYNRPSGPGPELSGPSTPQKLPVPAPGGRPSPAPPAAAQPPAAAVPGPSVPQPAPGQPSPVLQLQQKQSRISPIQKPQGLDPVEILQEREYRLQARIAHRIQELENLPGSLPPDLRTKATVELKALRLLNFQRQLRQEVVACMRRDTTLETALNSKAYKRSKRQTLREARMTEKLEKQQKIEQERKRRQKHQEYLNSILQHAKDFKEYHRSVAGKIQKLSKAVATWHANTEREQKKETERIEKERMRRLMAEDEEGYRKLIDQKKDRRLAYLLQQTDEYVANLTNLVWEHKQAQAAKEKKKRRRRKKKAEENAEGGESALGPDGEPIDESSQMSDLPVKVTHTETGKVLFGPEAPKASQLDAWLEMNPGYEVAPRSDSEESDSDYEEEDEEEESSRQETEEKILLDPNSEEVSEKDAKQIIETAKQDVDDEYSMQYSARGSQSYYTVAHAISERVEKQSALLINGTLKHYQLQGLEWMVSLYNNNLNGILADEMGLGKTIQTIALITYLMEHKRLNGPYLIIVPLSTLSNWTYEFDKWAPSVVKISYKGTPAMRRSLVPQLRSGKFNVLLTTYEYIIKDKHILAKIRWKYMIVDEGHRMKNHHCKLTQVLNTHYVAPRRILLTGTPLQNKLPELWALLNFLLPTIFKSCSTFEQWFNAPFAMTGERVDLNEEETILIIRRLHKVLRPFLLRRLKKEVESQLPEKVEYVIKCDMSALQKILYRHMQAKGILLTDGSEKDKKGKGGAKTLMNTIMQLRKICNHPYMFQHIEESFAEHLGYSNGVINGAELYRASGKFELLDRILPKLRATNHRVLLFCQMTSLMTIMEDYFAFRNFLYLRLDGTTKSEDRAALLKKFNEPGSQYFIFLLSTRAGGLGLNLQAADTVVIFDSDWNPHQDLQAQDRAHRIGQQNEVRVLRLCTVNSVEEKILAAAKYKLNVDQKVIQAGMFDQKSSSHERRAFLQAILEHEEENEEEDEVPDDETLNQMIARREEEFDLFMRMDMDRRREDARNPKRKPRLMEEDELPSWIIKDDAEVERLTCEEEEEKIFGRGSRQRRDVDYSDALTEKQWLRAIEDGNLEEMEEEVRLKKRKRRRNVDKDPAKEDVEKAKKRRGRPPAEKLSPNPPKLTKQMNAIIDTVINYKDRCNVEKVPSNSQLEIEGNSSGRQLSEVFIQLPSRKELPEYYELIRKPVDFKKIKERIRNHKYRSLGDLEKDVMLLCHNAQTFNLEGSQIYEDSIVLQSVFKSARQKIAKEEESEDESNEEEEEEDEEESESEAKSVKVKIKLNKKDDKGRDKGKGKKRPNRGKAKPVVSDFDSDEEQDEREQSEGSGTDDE
Chain of BRG-1 (P51532 whole entry): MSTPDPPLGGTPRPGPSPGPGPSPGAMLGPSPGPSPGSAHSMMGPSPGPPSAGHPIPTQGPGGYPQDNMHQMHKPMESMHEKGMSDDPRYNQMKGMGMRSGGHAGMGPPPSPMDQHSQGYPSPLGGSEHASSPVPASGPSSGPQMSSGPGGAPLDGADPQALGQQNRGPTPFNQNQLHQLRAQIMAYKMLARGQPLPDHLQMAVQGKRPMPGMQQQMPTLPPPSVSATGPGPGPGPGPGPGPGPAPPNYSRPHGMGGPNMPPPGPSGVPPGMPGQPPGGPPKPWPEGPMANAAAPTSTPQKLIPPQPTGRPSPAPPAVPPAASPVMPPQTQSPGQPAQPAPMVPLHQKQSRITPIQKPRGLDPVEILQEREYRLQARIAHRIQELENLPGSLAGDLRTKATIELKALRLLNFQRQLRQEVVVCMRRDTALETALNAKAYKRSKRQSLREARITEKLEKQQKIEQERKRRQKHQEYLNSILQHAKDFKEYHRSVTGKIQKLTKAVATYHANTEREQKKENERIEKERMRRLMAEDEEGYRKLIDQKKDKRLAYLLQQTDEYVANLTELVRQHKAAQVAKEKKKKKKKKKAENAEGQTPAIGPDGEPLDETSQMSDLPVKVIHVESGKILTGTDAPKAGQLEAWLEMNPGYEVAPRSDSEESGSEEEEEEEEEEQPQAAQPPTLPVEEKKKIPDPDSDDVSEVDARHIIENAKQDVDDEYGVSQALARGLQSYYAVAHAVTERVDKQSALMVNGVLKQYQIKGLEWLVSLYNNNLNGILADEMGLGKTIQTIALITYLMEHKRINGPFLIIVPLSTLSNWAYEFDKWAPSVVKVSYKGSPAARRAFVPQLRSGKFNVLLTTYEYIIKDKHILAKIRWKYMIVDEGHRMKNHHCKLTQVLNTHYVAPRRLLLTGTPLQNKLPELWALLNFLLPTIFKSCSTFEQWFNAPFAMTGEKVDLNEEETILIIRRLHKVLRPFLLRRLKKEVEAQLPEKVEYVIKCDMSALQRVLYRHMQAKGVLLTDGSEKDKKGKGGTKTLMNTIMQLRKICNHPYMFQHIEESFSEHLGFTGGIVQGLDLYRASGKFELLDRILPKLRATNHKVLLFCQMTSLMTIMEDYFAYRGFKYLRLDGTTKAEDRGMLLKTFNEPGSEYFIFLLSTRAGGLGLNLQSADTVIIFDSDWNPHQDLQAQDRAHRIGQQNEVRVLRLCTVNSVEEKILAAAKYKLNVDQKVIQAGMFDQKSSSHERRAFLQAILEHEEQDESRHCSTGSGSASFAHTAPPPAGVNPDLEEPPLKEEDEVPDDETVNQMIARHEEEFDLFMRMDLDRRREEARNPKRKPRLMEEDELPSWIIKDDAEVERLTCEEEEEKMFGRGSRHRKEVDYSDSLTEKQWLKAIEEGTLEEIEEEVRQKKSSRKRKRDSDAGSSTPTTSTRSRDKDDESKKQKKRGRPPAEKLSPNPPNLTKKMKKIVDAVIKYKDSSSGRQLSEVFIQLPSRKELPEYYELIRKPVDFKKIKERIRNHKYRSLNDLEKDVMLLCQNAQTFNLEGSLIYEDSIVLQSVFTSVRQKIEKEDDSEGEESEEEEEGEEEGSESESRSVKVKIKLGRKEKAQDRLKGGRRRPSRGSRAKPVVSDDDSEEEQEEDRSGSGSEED

CC1OCCc2cc(C(=O)NCC(=O)Nc3nc(-c4cccc(N5C[C@@H](C)O[C@@H](C)C5)n4)cs3)ccc21 (stereo partly drawn) [Compound 271, N-(2-((4-(6-((cis)-2,6-dimethylmorpholino)pyridin-2-yl)thiazol-2-yl)amino)-2-oxoethyl)-1-methylisochromane-6-carboxamide]
IC50 (BRG-1): 1 to 5 µM | Emax (BRG-1): > 85% | BRM Max % Inhibition (BRM): >85% | IC50 (BRM): 0.1 to 1 µM

Cc1cc(-c2cccc(-c3csc(NC(=O)CNC(=O)c4ccc5c(c4)[C@](C)(CN)CCC5)n3)c2)cc(C)n1 [Compound 225, (4R)-4-(aminomethyl)-N-[2-[[4-[3-(2,6-dimethyl-4-pyridyl)phenyl]thiazol-2-yl]amino]-2-oxo-ethyl]-4-methyl-tetralin-6-carboxamide]
IC50 (BRG-1): > 5 µM | Emax (BRG-1): > 40% | BRM Max % Inhibition (BRM): >80% | IC50 (BRM): 0.1 to 1 µM

C[C@@H]1CN(c2cccc(-c3csc(NC(=O)CNC(=O)c4cc(C(C)(C)CO)ccc4F)n3)n2)C[C@H](C)O1 [Compound 145, N-[2-[[4-[6-[(cis)-2,6-dimethylmorpholin-4-yl]-2-pyridyl]thiazol-2-yl]amino]-2-oxo-ethyl]-2-fluoro-5-(2-hydroxy-1,1-dimethyl-ethyl)benzamide]
IC50 (BRG-1): 1 to 5 µM | Emax (BRG-1): > 60% | BRM Max % Inhibition (BRM): >90% | IC50 (BRM): 0.1 to 1 µM

CC1(CO)CCc2ccc(C(=O)NCC(=O)Nc3nc(-c4cccc(-c5ccncc5)c4)cs3)cc21 (single isomer, unassigned) [Compound 105]
IC50 (BRG-1): < 0.1 µM | Emax (BRG-1): > 90% | BRM Max % Inhibition (BRM): >95% | IC50 (BRM): < 0.1 µM

C[C@H](NC(=O)c1ccc2c(c1)C(C)(CO)CC2)C(=O)Nc1nc(-c2cccc(N3CCC3)c2)cs1 (stereo in doubt) [Compound 414, (S)-N-((S)-1-((4-(3-(azetidin-1-yl)phenyl)thiazol-2-yl)amino)-1-oxopropan-2-yl)-3-(hydroxymethyl)-3-methyl-2,3-dihydro-1H-indene-5-carboxamide]
IC50 (BRG-1; 30 nM BRG-1, 400 μM ATP): 0.1 to 1 µM | Emax (BRG-1; 30 nM BRG-1, 400 μM ATP): > 95% | BRM Max % Inhibition (BRM; 30 nM BRM, 400 μM ATP): >95% | IC50 (BRM; 30 nM BRM, 400 μM ATP): 0.1 to 1 µM

C[C@@H]1CN(c2cccc(-c3csc(NC(=O)CNC(=O)c4cccc(C5(CF)COC5)c4)n3)c2)C[C@H](C)O1 [Compound 149, N-(2-((4-(3-((cis)-2,6-dimethylmorpholino)phenyl)thiazol-2-yl)amino)-2-oxoethyl)-3-(3-(fluoromethyl)oxetan-3-yl)benzamide]
IC50 (BRG-1): 1 to 5 µM | Emax (BRG-1): > 70% | BRM Max % Inhibition (BRM): >95% | IC50 (BRM): 0.1 to 1 µM

C[C@@H]1CN(c2cccc(-c3csc(NC(=O)CNC(=O)c4cccc([C@@]5(O)CCOC5)c4)n3)n2)C[C@H](C)O1 [Compound 134, N-[2-[[4-[6-[(cis)-2,6-dimethylmorpholin-4-yl]-2-pyridyl]thiazol-2-yl]amino]-2-oxo-ethyl]-3-[(3S)-3-hydroxytetrahydrofuran-3-yl]benzamide]
IC50 (BRG-1): 1 to 5 µM | Emax (BRG-1): > 60% | BRM Max % Inhibition (BRM): >80% | IC50 (BRM): 0.1 to 1 µM

C[C@@H]1CN(c2cccc(-c3csc(NC(=O)[C@H](CO)NC(=O)c4ccnc(C(C)(C)C)c4)n3)c2)C[C@H](C)O1 [Compound 434, 2-(tert-butyl)-N-((S)-1-((4-(3-((cis)-2,6-dimethylmorpholino)phenyl)thiazol-2-yl)amino)-3-hydroxy-1-oxopropan-2-yl)isonicotinamide]
IC50 (BRG-1; 30 nM BRG-1, 400 μM ATP): 1 to 5 µM | Emax (BRG-1; 30 nM BRG-1, 400 μM ATP): > 90% | BRM Max % Inhibition (BRM; 30 nM BRM, 400 μM ATP): >90% | IC50 (BRM; 30 nM BRM, 400 μM ATP): 0.1 to 1 µM

C[C@@H]1CN(c2cccc(-c3csc(NC(=O)CNC(=O)c4cccc5c4OCC[C@]5(C)CO)n3)c2)C[C@H](C)O1 [Compound 252, (S)-N-(2-((4-(3-((cis)-2,6-dimethylmorpholino)phenyl)thiazol-2-yl)amino)-2-oxoethyl)-4-(hydroxymethyl)-4-methylchroman-8-carboxamide]
IC50 (BRG-1): > 5 µM | Emax (BRG-1): > 30% | BRM Max % Inhibition (BRM): >60% | IC50 (BRM): 1 to 5 µM
